Results published in ChEMBL document CHEMBL5512599, “Synthetic non-toxic anti-biofilm agents as a strategy in combating bacterial resistance” (Eur J Med Chem, 2023).

Tests used:
[1] = Inhibition of quorum sensing system in Pseudomonas aeruginosa PAO1 assessed as inhibition of pyocyanin production at 256 ug/ml incubated for 24 hrs by absorbance based assay; settings: dose 256.0 µg/ml
Pseudomonas aeruginosa [2] = assay: Antibacterial activity against Pseudomonas aeruginosa 27853 assessed as inhibition of bacterial growth at 32 microg/ml incubated for 24 hrs in presence of Ciprofloxacin by absorbance based microplate reader analysis relative to control; assay type: functional; design: scale not given: the % may be the effect or the level left; settings: dose 32 µg/ml
Pseudomonas aeruginosa [3] = assay: Antibiofilm activity against Pseudomonas aeruginosa PAO1 assessed as inhibition of biofilm formation at 64 microg/ml incubated for 24 hrs by BacTiter Glo reagent based luminescence analysis relative to control; assay type: functional; design: scale not given: the % may be the effect or the level left; settings: dose 64 µg/ml
Pseudomonas aeruginosa [4] = assay: Antibacterial activity against Pseudomonas aeruginosa 27853 assessed as inhibition of bacterial growth at 32 microg/ml incubated for 24 hrs in presence of Clarithromycin by absorbance based microplate reader analysis relative to control; assay type: functional; design: scale not given: the % may be the effect or the level left; settings: dose 32 µg/ml
Staphylococcus aureus [5] = assay: Antimicrobial activity against Staphylococcus aureus ATCC 25923 assessed as reduction in bacterial growth at 0.25 uM incubated for 16 hrs by broth dilution method relative to control; assay type: functional; design: scale not given: the % may be the effect or the level left
Staphylococcus aureus [6] = assay: Antimicrobial activity against Staphylococcus aureus ATCC 25923 assessed as reduction in bacterial growth at 0.12 uM incubated for 16 hrs by broth dilution method relative to control; assay type: functional; design: scale not given: the % may be the effect or the level left
Staphylococcus aureus [7] = assay: Antimicrobial activity against Staphylococcus aureus ATCC 25923 assessed as reduction in bacterial growth at 0.5 uM incubated for 16 hrs by broth dilution method relative to control; assay type: functional; design: scale not given: the % may be the effect or the level left
Staphylococcus aureus [8] = assay: Antibiofilm activity against Staphylococcus aureus ATCC 25923 at 25 ug/ml measured after 24 hrs by crystal violet staining based analysis relative to control; assay type: functional; settings: dose 25 µg/ml
Pseudomonas aeruginosa [9] = assay: Antibiofilm activity against Pseudomonas aeruginosa ATCC 27853 assessed as inhibition of biofilm formation at 0.5 times of MIC by crystal violet staining based analysis relative to control; assay type: functional; design: scale not given: the % may be the effect or the level left
[10] = Inhibition of quorum sensing system in Pseudomonas aeruginosa PA14 assessed as inhibition of pyocyanin production
Pseudomonas aeruginosa [11] = assay: Antibacterial activity against Pseudomonas aeruginosa 27853 assessed as inhibition of bacterial growth at 3.2 microg/ml incubated for 24 hrs by absorbance based microplate reader analysis relative to control; assay type: functional; design: scale not given: the % may be the effect or the level left; settings: dose 3.2 µg/ml
[12] = system: Staphylococcus epidermidis; assay: Antibiofilm activity against Staphylococcus epidermidis assessed as inhibition of biofilm formation at 40 uM measured after 24 hrs by confocal laser scanning microscopy analysis relative to control; assay type: functional; design: scale not given: the % may be the effect or the level left
Pseudomonas aeruginosa [13] = assay: Anti-motility activity against Pseudomonas aeruginosa PAO1 assessed as reduction in swarming at 20 uM incubated for 16 hrs by crystal violet staining analysis relative to control; assay type: functional; design: scale not given: the % may be the effect or the level left
Pseudomonas aeruginosa [14] = assay: Antimicrobial activity against Pseudomonas aeruginosa ATCC 9027 assessed as reduction in microbial growth by serial dilution method; assay type: functional, organism-based
Staphylococcus aureus [15] = assay: Antibiofilm activity against Staphylococcus aureus ATCC 6538 assessed as inhibition of biofilm formation incubated for 24 hrs by crystal violet staining based analysis; assay type: functional, organism-based; settings: ATCC 6538, 24 h
Acinetobacter baumannii = assay: Antibiofilm activity against Acinetobacter baumannii ATCC 19606 assessed as inhibition of biofilm formation at 66.5 ug/ml by crystal violet assay; assay type: functional; design: scale not given: the % may be the effect or the level left; settings: dose 66.5 µg/ml
Pseudomonas aeruginosa [16] = assay: Anti-motility activity against Pseudomonas aeruginosa PAO1 assessed as reduction in swarming at 100 ug/ml incubated for 16 hrs by crystal violet staining analysis; assay type: functional; design: scale not given: the % may be the effect or the level left; settings: dose 100 µg/ml
Pseudomonas aeruginosa [17] = assay: Anti-motility activity against Pseudomonas aeruginosa PAO1 assessed as reduction in swarming at 50 ug/ml incubated for 16 hrs by crystal violet staining analysis; assay type: functional; design: scale not given: the % may be the effect or the level left; settings: dose 50 µg/ml
Pseudomonas aeruginosa [18] = assay: Antibiofilm activity against Pseudomonas aeruginosa PAO1 assessed as inhibition of biofilm formation incubated for 8 hrs by crystal violet based; assay type: functional, organism-based; settings: PAO1, 8 h
Staphylococcus aureus [19] = assay: Inhibition of Staphylococcus aureus Sortase A at 100 uM relative to control
Staphylococcus aureus [20] = assay: Antibiofilm activity against Staphylococcus aureus ATCC 25923 assessed as inhibition of biofilm formation; assay type: functional, organism-based
Staphylococcus aureus [21] = assay: Antibiofilm activity against Staphylococcus aureus BAA 1708 at 3.1 ug/ml measured after 24 hrs by crystal violet staining based analysis relative to control; assay type: functional; settings: dose 3.1 µg/ml
Staphylococcus aureus [22] = assay: Antibiofilm activity against Staphylococcus aureus ATCC 25923 at 3.1 ug/ml measured after 24 hrs by crystal violet staining based analysis relative to control; assay type: functional; settings: dose 3.1 µg/ml
Staphylococcus aureus [23] = assay: Antibiofilm activity against Staphylococcus aureus ATCC 29213 at 3.1 ug/ml measured after 24 hrs by crystal violet staining based analysis relative to control; assay type: functional; settings: dose 3.1 µg/ml
Streptococcus mutans = assay: Antibiofilm activity against Streptococcus mutans ATCC 25175 assessed as inhibition of biofilm formation incubated for 24 hrs by crystal violet staining based analysis; assay type: functional, organism-based; settings: ATCC 25175, 24 h
[24] = target: T1, Transcriptional regulator MvfR (Pseudomonas aeruginosa PA14, UniProt A0A072ZLE6); assay: Inhibition of PqsR-mediated quorum sensing system in Pseudomonas aeruginosa PAO1 assessed as reduction in pyocyanin production
T1 sequence (A0A072ZLE6 whole entry): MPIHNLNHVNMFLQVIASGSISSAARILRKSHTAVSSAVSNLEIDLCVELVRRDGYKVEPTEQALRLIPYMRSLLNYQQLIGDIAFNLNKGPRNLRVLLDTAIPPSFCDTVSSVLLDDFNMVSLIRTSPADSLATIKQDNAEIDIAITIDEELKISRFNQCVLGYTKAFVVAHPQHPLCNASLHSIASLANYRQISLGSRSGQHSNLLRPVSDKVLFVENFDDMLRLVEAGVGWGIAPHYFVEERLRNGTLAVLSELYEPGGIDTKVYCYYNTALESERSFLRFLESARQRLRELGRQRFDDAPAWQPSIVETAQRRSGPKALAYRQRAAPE

Pseudomonas aeruginosa [25] = assay: Antibiofilm activity against wild type Pseudomonas aeruginosa PAO1 assessed as inhibition of biofilm formation at 100 uM incubated for 24 hrs by crystal violet staining based analysis relative to control; assay type: functional; design: scale not given: the % may be the effect or the level left
Pseudomonas aeruginosa [26] = assay: Antibiofilm activity against Pseudomonas aeruginosa PAO1 assessed as inhibition of biofilm formation incubated for 24 hrs by crystal violet staining based assay; assay type: functional, organism-based; settings: PAO1, 24 h

## COc1ccc(OCCCCCCCC(=O)NNC(=O)Cn2c(=O)oc3ncccc32)cc1
[1]
  inhibition: 53%
Pseudomonas aeruginosa [2]
  Activity: 48.27%
Pseudomonas aeruginosa [3]
  Activity: 40%
Pseudomonas aeruginosa [4]
  Activity: 49.79%

## Cc1ccc(C(=O)c2nn(-c3nc(-c4ccccc4)c(-c4sc(-n5nc(C(=O)c6ccc(C(F)(F)F)cc6)c(C#N)c5N)nc4-c4ccccc4)s3)c(N)c2C#N)cc1
Staphylococcus aureus [5]
  Activity: 20%
Staphylococcus aureus [6]
  Activity: 15%
Staphylococcus aureus [7]
  Activity: 35%

## Cc1nn(C)c([N-]C(=O)c2ccc(Cl)cc2)c1[N+]#N
Staphylococcus aureus [8]
  Activity: 69%

## NCCCCCCCCCCCCNc1ccnc2cc(Cl)ccc12
Pseudomonas aeruginosa [9]
  Activity: 85%
[10]
  IC50: 12 µM

## CC[C@H]1OC(=O)[C@H](C)[C@@H](O[C@H]2C[C@@](C)(OC)[C@@H](O)[C@H](C)O2)[C@H](C)[C@@H](O[C@@H]2O[C@H](C)C[C@H](N(C)C)[C@H]2O)[C@](C)(OC)C[C@@H](C)C(=O)[C@H](C)[C@@H](O)[C@]1(C)O [CLARITHROMYCIN]
Pseudomonas aeruginosa [11]
  Activity: 29.11%

## CN(C)c1cccc(/C=N/N=C2\SCC(=O)N2c2ccc(S(N)(=O)=O)cc2)c1
[12]
  Activity: 70%
Pseudomonas aeruginosa [13]
  Activity: 70%

## NCCCCCCCCCCCCNc1ccnc2cc(C(F)(F)F)ccc12
Pseudomonas aeruginosa [9]
  Activity: 75%
[10]
  IC50: 50 µM

## O=C1C=C(c2ccc(F)cc2)/C(=C/Sc2ccccn2)N1
Pseudomonas aeruginosa [14]
  IC50: 32 µM

## CCOC(=O)C1S/C(=N\N=C\c2cccc(Cl)c2)N(c2ccc(S(N)(=O)=O)cc2)C1=O (stereo not drawn)
[12]
  Activity: 80%
Pseudomonas aeruginosa [13]
  Activity: 72%

## CCOC(=O)c1nn(-c2ccc(Cl)cc2)cc1C(=O)c1cc2cc(CN3CCN(Cc4ccc5oc(C(=O)c6cn(-c7ccc(Cl)cc7)nc6C(=O)OCC)cc5c4)CC3)ccc2o1
Staphylococcus aureus [15]
  IC50: 4.2 µM

## O=C(/C=C/c1ccc(C(F)(F)F)cc1)c1ccccc1O
Acinetobacter baumannii
  Activity: 56.8%
Pseudomonas aeruginosa [16]
  Activity: 31.74%
Pseudomonas aeruginosa [17]
  Activity: 21.91%

## Cc1ccc(NC(=O)Cn2c(N)nc(Cc3ccc(C(C)(C)C)cc3)c2-c2ccccc2Br)cc1
Pseudomonas aeruginosa [18]
  IC50: 100 µM

## CC(C)(C)OC(=O)NCCn1cc(-c2nc(-c3c[nH]c4ncccc34)cs2)c2ccccc21
Staphylococcus aureus [19]
  inhibition: 47.8%
Staphylococcus aureus [20]
  IC50: 12 µM

## COc1ccc(CC(=O)[N-]c2c([N+]#N)c(C)nn2C)cc1
Staphylococcus aureus [21]
  Activity: 25%
Staphylococcus aureus [22]
  Activity: 38%
Staphylococcus aureus [23]
  Activity: 45.7%

## CCOC(=O)c1nn(-c2ccc([N+](=O)[O-])cc2)cc1C(=O)c1cc2cc(CN3CCN(Cc4ccc5oc(C(=O)c6cn(-c7ccc([N+](=O)[O-])cc7)nc6C(=O)OCC)cc5c4)CC3)ccc2o1
Streptococcus mutans
  IC50: 5.8 µM

## Clc1ccc2c(NCCCCCCCCNCc3cc4ccccc4s3)ccnc2c1
[24]
  IC50: 30 µM

## Nc1nc2ccc(/C=C/c3ccccc3)cc2[nH]1
Pseudomonas aeruginosa [25]
  Activity: 56%

## Cc1cccc(/C=C2/C(c3cccc(C)c3)=CC(=O)N2Cc2ccccc2)c1
[10]
  IC50: 0.28 µM
Pseudomonas aeruginosa [26]
  IC50: 260 nM
